The source of these data is paper PMC9600589, “The Heptaprenyl Diphosphate Synthase (Coq1) Is the Target of a Lipophilic Bisphosphonate That Protects Mice against Toxoplasma gondii Infection” (mBio, 2022).

In data set [1] the test system is T. cruzi. The arrangement: method as in PMID 24789335. The note with it: cited from earlier work.
Data set [2] has as its system T. gondii RH-cLuc-GFP. Briefly: Dissemination of infection, luciferase-expressing RH parasites, in vivo imaging. The note with it: 1 mg/kg single daily dose for 8 days. More on the design: species or system Swiss Webster mice. From the text: (§1) At this point, live mice were inoculated with δ-luciferin for visualization of the infection in an IVIS illumination system ([34]).

The test system of data set [3] is T. gondii RH parental strain. Briefly: Plaque assay measuring growth reversibility after drug removal. The note with it: 7 days with 1 μM or 2 μM, then 7 days without drug. The format is cell-based, Toxoplasma gondii.
Data set [4] relates to hTERT cells. Briefly: Cytotoxicity to hTERT cells (alamarBlue). The note with it: for % Inhibition (cytotoxicity): hTERT cells. The procedure: The cytotoxicity was tested using an alamarBlue assay as described by Recher et al. ([67]).
Background: The colour change of resazurin is a common sign of viable cells or microbes.

The subject of data set [5] is T. gondii RH strain. Briefly: Acute lethal infection of mice with RH tachyzoites. The note with it: mice infected with 100 RH tachyzoites, intraperitoneal, daily for 10 days from 6 h postinfection. In kind it is in vivo, Swiss Webster mice. The procedure:
as §1
Experiments were carried out as described previously ([49]) using 100 T. gondii tachyzoites of the RH strain to infect Webster mice. Drugs were dissolved in 10% kolliphor HS 15 and were inoculated intraperitoneally. Treatment was initiated 6 h after infection and administered daily for 10 days.

In general, ED50 refers to the dose that gives a 50% effect, or the effect in half of the subjects. Low readings indicate an effect at a small dose, high ones a need for a large dose. Take `CCCCCCCCCCn1cc[n+](CC(P(=O)([O-])O)P(=O)(O)O)c1` (stereo not shown) [BPH-1218]: the “decrease in UQ9 biosynthesis” value in data set [1] is reported as 40%. For the same molecule, the “effect on virulence and dissemination of the infection” value in data set [2] was “remarkable effect on both virulence and dissemination of the infection”. In data set [3], the “reversibility of growth inhibition after drug removal” value is listed as “irreversible”. The “toxicity against human fibroblast cells” value in data set [4] is “very little toxicity”. Further, the “% Inhibition (cytotoxicity)” value in data set [4] (at 4X EC50 (concentration in μM in brackets)) came to 4.30 ± 2.31%; in data set [4] (at 10X EC50 (concentration in μM in brackets)) it was 10.28 ± 1.07%. This molecule returned an ED50 in data set [5] of 0.69 mg/kg/day.
